Data taken from publication PMC6900016, “Synthesis of Indomorphan Pseudo‐Natural Product Inhibitors of Glucose Transporters GLUT‐1 and ‐3” (Angewandte Chemie (International Ed. in English), 2019).

What was measured:
Assay in all cases: cells
Design in all cases: Cell growth inhibition, sulforhodamine B total protein staining
MDAMB468 = settings: Homo sapiens, MDA-MB-468; 72 h growth; read-out: Cell growth inhibition IC50/µM
Procedure, shortened: (§1)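 72 h exposure of a 94-cell-line panel to Glupin; growth measured by sulforhodamine B total-protein staining after TCA fixation (10% adherent, 50% suspension/semi-adherent, 1 h at 4 °C). IC50 derived from growth inhibition.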

MG63 = settings: Homo sapiens, MG-63; 72 h growth; read-out: Cell growth inhibition IC50/µM
Procedure, shortened: as §1

SKHEP1 = settings: Homo sapiens, SK-HEP1; 72 h growth; read-out: Cell growth inhibition IC50/µM
Procedure, shortened: as §1

MT3 = settings: MT-3; 72 h growth; read-out: Cell growth inhibition IC50/µM
Procedure, shortened: as §1

UO31 = settings: Homo sapiens, UO-31; 72 h growth; read-out: Cell growth inhibition IC50/µM
Procedure, shortened: as §1

JIMT1 = settings: Homo sapiens, JIMT-1; 72 h growth; read-out: Cell growth inhibition IC50/µM
Procedure, shortened: as §1

SNB75 = settings: Homo sapiens, SNB-75; 72 h growth; read-out: Cell growth inhibition IC50/µM
Procedure, shortened: as §1

MIAPACA2 = settings: Homo sapiens, MIA PaCa-2; 72 h growth; read-out: Cell growth inhibition IC50/µM
Procedure, shortened: as §1

HT29 = settings: Homo sapiens, HT-29; 72 h growth; read-out: Cell growth inhibition IC50/µM
Procedure, shortened: as §1

HEK293 = settings: Homo sapiens, HEK293; 72 h growth; read-out: Cell growth inhibition IC50/µM
Procedure, shortened: as §1

SAOS2 = settings: Homo sapiens, SAOS-2; 72 h growth; read-out: Cell growth inhibition IC50/µM
Procedure, shortened: as §1

HS578T = settings: Homo sapiens, Hs-578T; 72 h growth; read-out: Cell growth inhibition IC50/µM
Procedure, shortened: as §1

A431 = settings: Homo sapiens, A-431; 72 h growth; read-out: Cell growth inhibition IC50/µM
Procedure, shortened: as §1

BXPC3 = settings: Homo sapiens, BXPC-3; 72 h growth; read-out: Cell growth inhibition IC50/µM
Procedure, shortened: as §1

SF295 = settings: Homo sapiens, SF-295; 72 h growth; read-out: Cell growth inhibition IC50/µM
Procedure, shortened: as §1

NCIH292 = settings: Homo sapiens, NCI-H292; 72 h growth; read-out: Cell growth inhibition IC50/µM
Procedure, shortened: as §1

GRANTA519 = settings: Homo sapiens, Granta-519; 72 h growth; read-out: Cell growth inhibition IC50/µM
Procedure, shortened: as §1

NCIH460 = settings: Homo sapiens, NCI-H460; 72 h growth; read-out: Cell growth inhibition IC50/µM
Procedure, shortened: as §1

SW620 = settings: Homo sapiens, SW-620; 72 h growth; read-out: Cell growth inhibition IC50/µM
Procedure, shortened: as §1

RDES = settings: RD-ES; 72 h growth; read-out: Cell growth inhibition IC50/µM
Procedure, shortened: as §1

A2780 = settings: Homo sapiens, A2780; 72 h growth; read-out: Cell growth inhibition IC50/µM
Procedure, shortened: as §1

SKNSH = settings: Homo sapiens, SK-N-SH; 72 h growth; read-out: Cell growth inhibition IC50/µM
Procedure, shortened: as §1

5637 = settings: 72 h growth; read-out: Cell growth inhibition IC50/µM
Procedure, shortened: as §1

CCOC(=O)Cn1c2c(c3ccccc31)C[C@@H]1C[C@H]2C(OC)CN1C(=O)c1cccnc1SC (single isomer, unassigned; (+)) [(+)-5a, Glupin]
IC50 (MDAMB468): 4.32 µM | IC50 (MG63): > 30 µM | IC50 (SKHEP1): 0.569 µM | IC50 (MT3): 2.54 µM | IC50 (UO31): 0.109 µM | IC50 (JIMT1): 0.113 µM | IC50 (SNB75): 9.13 µM | IC50 (MIAPACA2): 0.061 µM | IC50 (HT29): 3.35 µM | IC50 (HEK293): 0.463 µM | IC50 (SAOS2): > 30 µM | IC50 (HS578T): 0.12 µM | IC50 (A431): 0.23 µM | IC50 (BXPC3): 0.591 µM | IC50 (SF295): 0.427 µM | IC50 (NCIH292): > 30 µM | IC50 (GRANTA519): > 30 µM | IC50 (NCIH460): 0.572 µM | IC50 (SW620): > 30 µM | IC50 (RDES): 3.71 µM | IC50 (A2780): 0.248 µM | IC50 (SKNSH): 0.084 µM | IC50 5637: 0.114 µM
